Our source for the z-score and cell count values is PubChem BioAssay AID2124 (Sanford-Burnham Center for Chemical Genomics, 2009).

This experiment is described as follows: cell-permeable autofluorescent compounds in GFP channel, dose response, artefact control, imaging, high-content imaging (AID 2124).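 On all read-outs here: cells exposed to compound for 48 hours before fixing.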 The following applies: cells, GFP-channel autofluorescence, high-content imaging, at 10 µM; for z-score: stronger effect = higher value.

Results filed as inconclusive are left out. Calls of active or inactive are those of the source. How the calls were made is not given here; tested in MIN6 cells.

`O=C(NCCCN1CCCCCC1)C1CC(=O)N(C2CCCC2)C1` (stereo not given): the z-score is -0.33 (inactive) and the cell count was determined as 3260 cells.

Regarding `Nc1c(C(=O)NC2CCCC2)sc2nc(-c3cccs3)ccc12`, the z-score is -0.31 (inactive) and the cell count is 2460 cells.

Regarding `CC(=Nc1ccc(C)cc1C)c1sc2ccccc2c1O`, the z-score is -0.3 (inactive) and the cell count was found to be 2760 cells.

Consider `CCc1nnc(NC(=O)CCC(=O)NCc2ccccc2OC)s1`, for which the z-score was -0.38 (inactive) and the cell count stood at 2890 cells.

Consider `COc1ccc(N(CCN2C(=O)c3ccccc3C2=O)C(=O)c2cccc([N+](=O)[O-])c2)cc1`, for which the z-score is -0.25 (inactive) and the cell count was determined as 2790 cells.

Turning to `CCOC(=O)COc1ccc(C(=O)NC2CCCCC2)cc1`, the z-score was -0.38 (inactive) and the cell count came out at 3240 cells.

Take `CC(C)(C)C(=O)/C=c1\s/c(=C\c2ccc(-c3ccc([N+](=O)[O-])cc3)o2)c(=O)n1CC(=O)NC(N)=O`: the z-score was 4.23 and the cell count was found to be 3110 cells.

For the compound `CCCN1CC=C2C(C#N)=C(N)C(C#N)(C#N)C(c3cccc(OC)c3OC)C2C1` (stereo not given), the z-score is 0.21 and the cell count was 3050 cells.

On to `CCc1ccc(NC(=O)c2cc(C(C)C)on2)cc1`, for which the z-score was -0.39 (inactive) and the cell count was 3050 cells.

Regarding `Nc1c(C(=O)N/N=C/c2ccccc2Cl)oc2nc(-c3ccccc3)cc(-c3ccco3)c12`, the z-score was -0.27 (inactive) and the cell count is 2970 cells.

Regarding `O=C(COc1ccccc1)N1CCN=C1c1ccccc1`, the z-score was -0.33 (inactive) and the cell count came to 3190 cells.

`Cc1cccc2sc(NC(=O)C3CCCN(S(=O)(=O)c4cccc5nonc45)C3)nc12` (stereo not given): the z-score was -0.28 (inactive) and the cell count was 3130 cells.

`Cc1noc(C)c1S(=O)(=O)N1CCC(C(=O)N2CCN(C3CCCC3)CC2)CC1`: the z-score was -0.33 (inactive) and the cell count came to 2760 cells.

In the case of `Cc1c(C(c2ccc([N+](=O)[O-])cc2)c2c(C)n(C)n(-c3ccccc3)c2=O)c(=O)n(-c2ccccc2)n1C`, the z-score is -0.39 (inactive) and the cell count stood at 3040 cells.

Regarding `CCOC(=O)c1ccc(NC(=O)COc2ccc(S(=O)(=O)NC(C)CC)cc2)cc1` (stereo not given), the z-score was -0.33 (inactive) and the cell count worked out at 3160 cells.

As to `CC(C)C(c1nnnn1C1CCCC1)N1CCOCC1` (stereo not given), the z-score was -0.33 (inactive) and the cell count is 3180 cells.

Consider `CCCCNc1ccc2c3c(cccc13)C(=O)N(CCCC)C2=O`, for which the z-score was 3.41 and the cell count is 2720 cells.

Regarding `N#Cc1ccc(-c2ccc(Cl)cc2)nc1SCC(=O)c1cccc(Cl)c1`, the z-score was -0.27 (inactive) and the cell count was found to be 3130 cells.

For `CCCCC(=O)Nc1ccc2c(c1)nc1n2CCSC1`, the z-score was -0.38 (inactive) and the cell count was found to be 2870 cells.

On to `CCOC(=O)/C(C#N)=C/C=C1\C=Cc2ccccc2N1CC`, for which the z-score is -0.28 (inactive) and the cell count is 2720 cells.

With `N#Cc1nc(N2CCOCC2)nc(N2CCOCC2)n1`, the z-score is -0.39 (inactive) and the cell count came to 3120 cells.

In the case of `O=C1/C(=N\S(=O)(=O)c2cccs2)C([n+]2cccc(Cc3ccccc3)c2)=C([O-])c2ccccc21`, the z-score was -0.31 (inactive) and the cell count came to 307 cells.

Consider `O=C(N=C1SCC(=O)N1c1ccccc1Cl)c1ccccc1`, for which the z-score was -0.31 (inactive) and the cell count turned out to be 3110 cells.

`N#Cc1c(C(F)(F)F)cc(-c2ccccc2)nc1SCc1nc(N)nc(N2CCOCC2)n1`: the z-score is 0.32 and the cell count was 3070 cells.

For `N#C/C(=C/c1ccc(N2CCCCCC2)o1)c1ccc(Cl)cc1`, the z-score is 0.94 and the cell count stood at 277 cells.

As for `Oc1ccc(Cl)cc1C1=Nc2ccccc2N=C(c2ccco2)C1`, the z-score is -0.35 (inactive) and the cell count turned out to be 2660 cells.

As for `CN1C(=S)N(c2cccnc2)C(=O)/C1=C\c1ccc(N(C)C)cc1`, the z-score is -0.22 (inactive) and the cell count was 3030 cells.

For `COc1ccccc1CC(=O)NC1CC(C)(C)NC(C)(C)C1`, the z-score is -0.33 (inactive) and the cell count came to 2940 cells.

Consider `N#C/C(=C/c1ccc(N2CCOCC2)o1)c1nc2ccccc2[nH]1`, for which the z-score was 0.11 and the cell count amounted to 2960 cells.

Consider `Cc1cc(C)c(C(=O)O)c(CC(C)(C)C(=O)O)c1`, for which the z-score was -0.33 (inactive) and the cell count amounted to 3280 cells.

Consider `Fc1ccc(C2CC(c3ccco3)=NN2c2ccccc2)cc1` (stereo not given), for which the z-score is -0.33 (inactive) and the cell count stood at 2910 cells.

For the compound `Nc1c(C(=O)O)sc2nc(-c3ccccc3)cc(-c3ccccc3)c12`, the z-score was -0.28 (inactive) and the cell count came out at 3320 cells.

As to `Nc1nc(-c2ccc(Cl)cc2)c(N=Nc2ccc(S(=O)(=O)N3CCOCC3)cc2)s1`, the z-score was -0.32 (inactive) and the cell count came out at 2990 cells.

In the case of `Nc1c(C(=O)C2CC2)sc2nc(-c3cccs3)cc(C(F)(F)F)c12`, the z-score is 0.95 and the cell count was found to be 2750 cells.

As to `COc1ccc(NC(=O)c2sc3nc(-c4cccnc4)ccc3c2N)cc1`, the z-score was -0.3 (inactive) and the cell count was determined as 2880 cells.

With `N#C/C(=C/c1ccc(N2CCCCC2)o1)C(=O)NCCc1c[nH]c2ccccc12`, the z-score was 0.47 and the cell count came to 3410 cells.

In the case of `CCOC(=O)CNC(=O)c1cn(C)c(=O)c2cc(OC)c(OC)cc12`, the z-score was -0.33 (inactive) and the cell count amounted to 3170 cells.

For the compound `Cc1ccc(C2CC(=O)NC(SCc3ccccc3)=C2C#N)o1` (stereo not given), the z-score was -0.33 (inactive) and the cell count stood at 3270 cells.

On to `CC1(C)Cc2c(c(-c3ccccc3)[nH]c(=O)c2C#N)CO1`, for which the z-score is -0.33 (inactive) and the cell count amounted to 3520 cells.

For the compound `O=C(NCc1ccc(F)cc1)C1CCCN(S(=O)(=O)c2cccnc2)C1` (stereo not given), the z-score is -0.33 (inactive) and the cell count came out at 3070 cells.

For `Cc1ccc(S(=O)(=O)C(C#N)c2nc3ccccc3nc2N2CCC(C)CC2)cc1` (stereo not given), the z-score is -0.33 (inactive) and the cell count was found to be 3260 cells.

On to `O=C(NCc1cccs1)c1ccc(N2CCCCC2)nc1`, for which the z-score was -0.33 (inactive) and the cell count turned out to be 2760 cells.

Regarding `C=CCN1C(=O)/C(=C/c2ccc(N3CCOCC3)o2)C(=O)NC1=S`, the z-score is -0.32 (inactive) and the cell count is 3270 cells.

As for `COc1cccc2c(=O)n(CC(=O)Nc3cccc(F)c3)ccc12`, the z-score is -0.33 (inactive) and the cell count is 3120 cells.

On to `O=C(/C=C/c1c[nH]c2ccccc12)c1c(O)n(CCc2ccccc2)c(=O)[nH]c1=O`, for which the z-score is 2.73 and the cell count was determined as 2920 cells.

Regarding `CCOc1ccc(NC(=S)N2CCC(N(C)CC3CCCO3)CC2)cc1` (stereo not given), the z-score is -0.33 (inactive) and the cell count is 2900 cells.

For `c1ccc(-n2ncc3c(N4CCN(c5ccccn5)CC4)nc(N4CCCCCC4)nc32)cc1`, the z-score is -0.38 (inactive) and the cell count worked out at 3020 cells.

For the compound `CN1C(=O)CC(N2CCN(Cc3ccc(Cl)cc3)CC2)C1=O` (stereo not given), the z-score is -0.39 (inactive) and the cell count came out at 2870 cells.

As for `Cn1c(=O)n(C)c2cc(NC(=O)COc3ccc(Cl)cc3)ccc21`, the z-score is -0.33 (inactive) and the cell count worked out at 3010 cells.

As for `CCC(=O)Nc1ccc(C(=O)OCC(=O)c2ccc(C)c([N+](=O)[O-])c2)cc1`, the z-score was -0.33 (inactive) and the cell count was found to be 2960 cells.

For the compound `O=C(c1cc([N+](=O)[O-])ccc1N1CCCC1)N1CCCC1`, the z-score is -0.38 (inactive) and the cell count amounted to 3210 cells.

As for `COc1ccc2c(C(=O)CN(C)C3CCCCC3)c[nH]c2c1`, the z-score was -0.37 (inactive) and the cell count was determined as 3190 cells.

As to `CCN(CC)c1ccc(C(=O)N/N=C/c2ccc(N3CCOCC3)cc2)cc1`, the z-score was -0.37 (inactive) and the cell count stood at 3040 cells.

For the compound `CC(=O)C1=C(C)Nc2ncnn2C1c1ccc(Cl)cc1Cl` (stereo not given), the z-score is -0.33 (inactive) and the cell count worked out at 3270 cells.

Regarding `Cc1cc2nc3c(=O)n(Cc4ccccc4)c(=O)[nH]c3nc2cc1N`, the z-score was -0.33 (inactive) and the cell count was 2710 cells.

Take `CN(CCCNC(=O)CN1C(=O)CC(C)(C)S(=O)(=O)c2ccccc21)C1CCCCC1`: the z-score was -0.33 (inactive) and the cell count amounted to 3030 cells.

On to `CCC(C(=O)OCC(=O)Nc1cccc(S(=O)(=O)NC2=NCCCCC2)c1)c1ccccc1` (stereo not given), for which the z-score is -0.33 (inactive) and the cell count was 3080 cells.

Regarding `COCc1cc(C)nc(Nc2ccccc2C)c1C#N`, the z-score was -0.34 (inactive) and the cell count is 3240 cells.

Take `C=CCNC(=O)C1CCN(S(=O)(=O)c2ccc(Br)cc2)CC1`: the z-score is -0.33 (inactive) and the cell count was determined as 3230 cells.

As to `CC(=O)N1CCN(Cc2nc3cc(NC(=O)c4ccccc4)ccc3n2C)CC1`, the z-score is -0.38 (inactive) and the cell count is 2960 cells.

With `C=CCNC(=O)/C(=C\c1ccc(Br)cc1)NC(=O)c1ccccc1OC`, the z-score is -0.39 (inactive) and the cell count amounted to 3390 cells.

As for `CC1=CN2C(=N)/C(=C/c3ccc([N+](=O)[O-])o3)C(=O)N=C2S1`, the z-score was 0.75 and the cell count stood at 348 cells.

For `O=C(CSc1ccc(-c2ccccc2)nn1)NCC1CCCO1` (stereo not given), the z-score is -0.38 (inactive) and the cell count was determined as 2970 cells.

With `O=C1CCCC(O)=C1C=NCCc1ccccc1`, the z-score was -0.38 (inactive) and the cell count was determined as 3080 cells.

Take `COc1cccc(/C=N/NC(=O)CCn2cnc3ccccc32)c1`: the z-score was -0.33 (inactive) and the cell count amounted to 3250 cells.
